The target in the assay is bovine serum albumin (Bos taurus, UniProt P02769). Put plainly: Dialysis module, HF field effect in the frequency range 1 to 170 MHz on separation of phenylacetic acid (Embodiment 2). It is filed as in vitro ADME. The settings on record: BSA 60 mg/ml, toxin 1 mmol/l. The method, then:
A dialysis module was set up for this purpose in that conventional hemofiltration capillaries were cast as loops using silicone into a syringe receiving neck. An aqueous albumin solution was introduced into the respective module in the presence of the uremic toxins phenylacetic acid, p-hydroxyhippuric acid and indoxyl sulfate. This solution was filtered with the dialysis module using a syringe pump for 10 min. […] The electromagnetic field is incremented by means of a high-frequency voltage source over a period of 10 minutes from […] in steps of 1 MHz. […] The effect of the HF field on the bond between the proteins and the uremic toxins was able to be evaluated by a comparison of the uremic toxin concentration in the resulting filtrates.
The HF field was varied in subbands of 10 MHz in the frequency range 1-170 MHz and was compared with a control experiment without an HF field.
The quantitative determination of the phenylacetic acid was performed using HPLC.
The results of the experiments are collected in FIG. 9. […] The effect was particularly pronounced at 54.6% in the subband from 110 to 120 MHz.

Chain of bovine serum albumin (P02769 25-607): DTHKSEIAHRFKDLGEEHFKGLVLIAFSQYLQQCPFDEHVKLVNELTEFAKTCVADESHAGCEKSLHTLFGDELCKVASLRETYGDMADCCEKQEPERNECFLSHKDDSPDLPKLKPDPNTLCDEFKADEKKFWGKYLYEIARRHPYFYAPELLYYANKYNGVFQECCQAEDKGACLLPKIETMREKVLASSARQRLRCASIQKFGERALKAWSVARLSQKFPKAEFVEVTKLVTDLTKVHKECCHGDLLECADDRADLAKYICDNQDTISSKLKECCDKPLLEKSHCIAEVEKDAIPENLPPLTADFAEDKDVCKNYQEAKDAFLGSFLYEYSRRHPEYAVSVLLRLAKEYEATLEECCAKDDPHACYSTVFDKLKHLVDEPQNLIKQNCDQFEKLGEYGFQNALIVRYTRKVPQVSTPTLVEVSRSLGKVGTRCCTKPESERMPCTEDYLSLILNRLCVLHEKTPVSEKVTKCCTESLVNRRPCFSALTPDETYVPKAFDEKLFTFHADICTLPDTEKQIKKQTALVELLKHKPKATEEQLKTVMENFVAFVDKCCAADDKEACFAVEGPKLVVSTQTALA

On to `O=C(O)Cc1ccccc1` [phenylacetic acid], for which the “increase of separation rate under the influence of the HF field” value by setting is: (HF field 1-170 MHz in subbands of 10 MHz vs control without HF field) “at least 45.3%”; (subband from 110 to 120 MHz vs control without HF field) 54.6%.
